# Measurements as given in patent publication US7276347B2 (priority 2004, dated 2007).
# Columns and labels:
# [1] = tested on: monoclonal antibody to HCY Oxime-KLH (example 4b); type: binding, mice
# [2] = tested on: antibodies to HCY Oxime-BTG (example 4a); type: binding, mice
Compound,% Cross-Reactivity [1],IC 50 [1],% Cross-Reactivity [2],IC 50 [2]
"O=C(O)CCCc1ccc(N(CCCl)CCCl)cc1 [Chlorambucil, chlorambucil]",<0.1%,">100,000 ng/ml",<0.3%,">10,000 ng/ml"
"N[C@@H](Cc1ccc(N(CCCl)CCCl)cc1)C(=O)O [Melphalan, melphalan]",<0.1%,">100,000 ng/ml",<0.3%,">10,000 ng/ml"
O=P1(N(CCCl)CCCl)NCCCO1 (stereo not drawn) [cyclophosphamide],<0.1%,">100,000 ng/ml",<0.3%,">10,000 ng/ml"
